The text below walks through data of publication PMC9728092 (RSC Advances, 2022).

The target in the experiment is AChE (Homo sapiens, UniProt P22303). As to the kind of experiment: AChE inhibitory assay in vitro. The class given is biochemical.
AChE, sequence (P22303 32-614): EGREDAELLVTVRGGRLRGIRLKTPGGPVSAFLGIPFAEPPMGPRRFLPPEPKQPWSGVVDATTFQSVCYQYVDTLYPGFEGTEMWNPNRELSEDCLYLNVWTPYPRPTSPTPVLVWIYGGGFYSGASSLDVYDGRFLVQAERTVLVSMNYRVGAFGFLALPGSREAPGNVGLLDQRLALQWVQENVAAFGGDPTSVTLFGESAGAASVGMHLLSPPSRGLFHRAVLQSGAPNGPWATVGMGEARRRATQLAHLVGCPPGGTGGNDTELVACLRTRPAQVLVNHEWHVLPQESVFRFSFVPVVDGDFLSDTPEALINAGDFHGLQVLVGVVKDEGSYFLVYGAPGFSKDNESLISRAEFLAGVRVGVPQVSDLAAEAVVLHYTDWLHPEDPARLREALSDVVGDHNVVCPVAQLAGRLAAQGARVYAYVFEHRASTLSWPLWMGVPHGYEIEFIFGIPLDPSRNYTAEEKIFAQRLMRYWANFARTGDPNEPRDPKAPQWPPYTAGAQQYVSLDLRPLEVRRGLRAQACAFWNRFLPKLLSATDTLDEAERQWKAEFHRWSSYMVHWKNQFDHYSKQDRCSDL
The IC50 is the point on the concentration scale where inhibition reaches its midpoint. Read a high IC50 as lower potency. Molecule `O=c1c(O)c(-c2ccc(O)cc2)oc2cc(O)cc(O)c12` [Compound 8, kaempferol] gave an IC50 of 17.9 ± 0.18 µM.
Under `O=c1c(O)c(-c2ccc(O)c(O)c2)oc2cc(O)cc(O)c12` [Compound 9, quercetin] stands 3.96 ± 0.27 µM; under `O=C1c2c(O)cc(O)cc2O[C@H](c2ccc(O)cc2)[C@H]1O` [Compound 10, dihydrokaempferol], over 50 µM.
